TGI and GI50 data for ten compounds are collected here from PubChem BioAssay (NCI).

Test systems include 786-0 renal; MDA-MB-231 breast; MCF7 breast; MALME-3M melanoma; SNB-19 CNS; T-47D breast; TK-10 renal; KM12 colon; EKVX NSCLC; SK-MEL-2 melanoma.
Test in all cases: inhibition of tumour cell growth, NCI panel, 48 h

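Following 48 hours of exposure in 96-well plates, responses at five concentrations were used to interpolate endpoints linearly. GI50 marks 50% less growth. TGI is the concentration that stops growth completely.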

Regarding `COc1cc(Oc2c(C)c(Cl)c(OC)c(Cl)c2OC)c2c(c1Cl)COC2=O`, the TGI was 68.4 µM with 786-0 renal; over 100 µM with MDA-MB-231 breast; 86.2 µM with MCF7 breast; over 100 µM in the test with MALME-3M melanoma; over 100 µM in the test on SNB-19 CNS; over 100 µM in the test with T-47D breast. For the same compound, the TGI in the test on TK-10 renal, in the test on KM12 colon and in the test with EKVX NSCLC was over 100 µM each time.

As to `CC1(C)S[C@@H]2[C@H](N3C(=O)c4ccccc4C3=O)CN2[C@H]1NC(=O)N[C@@H]1N2C[C@@H](N3C(=O)c4ccccc4C3=O)[C@H]2SC1(C)C`, the TGI in the test on 786-0 renal, in the test on MDA-MB-231 breast, in the test on SK-MEL-2 melanoma, in the test with MCF7 breast, in the test on MALME-3M melanoma and in the test on SNB-19 CNS was over 100 µM throughout. In addition, the TGI in the test on T-47D breast, in the test on TK-10 renal and in the test on KM12 colon was over 100 µM each time.

Take `CCN1CCC(Nc2ccnc3cc(Cl)ccc23)CC1`: the GI50 in the test with 786-0 renal was 32.4 µM; in the test on MDA-MB-231 breast, 19.7 µM; with MCF7 breast, 28.2 µM; in the test on MALME-3M melanoma, 20.7 µM; in the test on SNB-19 CNS, 79.1 µM; in the test on T-47D breast, 31.3 µM. Besides, the GI50 in the test with KM12 colon is 25.2 µM; in the test on EKVX NSCLC it was 35.2 µM. In addition, the TGI in the test on 786-0 renal was over 100 µM; with MDA-MB-231 breast, over 100 µM; in the test with MCF7 breast it was over 100 µM; with MALME-3M melanoma, 40.4 µM; with SNB-19 CNS, over 100 µM; in the test on T-47D breast, over 100 µM. The TGI with KM12 colon and with EKVX NSCLC was over 100 µM each time.

With `Cc1c(-c2ccc(C3CCCCC3)cc2)nc2ccc(F)cc2c1C(=O)O`, the GI50 with 786-0 renal is 0.235 µM; with MDA-MB-231 breast, 8.9 µM; in the test on SK-MEL-2 melanoma, over 45.9 µM; in the test with MCF7 breast, 0.168 µM; in the test on MALME-3M melanoma it was over 51.4 µM; with SNB-19 CNS, 0.2 µM. Moreover, the GI50 with T-47D breast was 9.65 µM; with TK-10 renal, over 76.2 µM; with KM12 colon, 0.402 µM. In addition, the TGI in the test with 786-0 renal, in the test with MDA-MB-231 breast, in the test with SK-MEL-2 melanoma, with MCF7 breast, in the test on MALME-3M melanoma and in the test on SNB-19 CNS was over 100 µM each time. Also, the TGI in the test on T-47D breast, in the test with TK-10 renal and in the test on KM12 colon was over 100 µM each time.

For `COc1cc2c(c(OC)c1OC)-c1ccc(O)cc1[C@@H](NC(C)=O)CC2`, the GI50 was 0.0779 µM in the test with 786-0 renal; 0.0689 µM in the test with MDA-MB-231 breast; 0.0423 µM with SK-MEL-2 melanoma; 0.0376 µM in the test with MCF7 breast; 0.0554 µM in the test with SNB-19 CNS; 0.0495 µM in the test on T-47D breast. Besides, the GI50 in the test on TK-10 renal was 0.0406 µM; in the test with KM12 colon, 0.0358 µM; with EKVX NSCLC, 0.0577 µM. The TGI with 786-0 renal, with MDA-MB-231 breast, in the test on SK-MEL-2 melanoma, in the test on MCF7 breast, with SNB-19 CNS and with T-47D breast was over 100 µM each time. For the same compound, the values for the TGI with TK-10 renal, in the test on KM12 colon and in the test on EKVX NSCLC were over 100 µM, 0.224 µM and over 100 µM, respectively.

With `CC1CCN(Cc2ccc(NC(=O)c3cc4ccc5cccnc5c4[nH]3)cc2)CC1`, the GI50 in the test with 786-0 renal is 2.71 µM; in the test with MDA-MB-231 breast, 5.59 µM; with SK-MEL-2 melanoma it was 2.45 µM; with MCF7 breast, 2.48 µM; with MALME-3M melanoma it was 2.05 µM; in the test with SNB-19 CNS, 13.1 µM. Moreover, the GI50 in the test on T-47D breast was 6.81 µM; in the test with TK-10 renal, 8.56 µM; in the test with KM12 colon it was 5.31 µM. Also, the TGI stood at 8.46 µM in the test with 786-0 renal; 23.2 µM in the test on MDA-MB-231 breast; 6.2 µM in the test with SK-MEL-2 melanoma; 14.7 µM in the test on MCF7 breast; 3.72 µM in the test on MALME-3M melanoma; 27.6 µM in the test on SNB-19 CNS. The figures for the TGI in the test with T-47D breast, in the test with TK-10 renal and with KM12 colon were 28.3 µM, 23.2 µM and 35.8 µM, respectively.

With `COc1cc(C2CC(c3cccc(Nc4ccnc5cc(Cl)ccc45)c3)=NN2c2ccc(Cl)cc2)cc(OC)c1OC` (configuration not stated), the GI50 was 2.05 µM in the test with 786-0 renal; 2.97 µM with MDA-MB-231 breast; 4.65 µM in the test on SK-MEL-2 melanoma; 2.31 µM in the test on MCF7 breast; 21.9 µM in the test with MALME-3M melanoma; 30.3 µM in the test with SNB-19 CNS. Further, the GI50 is 0.687 µM in the test on T-47D breast, 3.27 µM in the test with TK-10 renal and 0.818 µM in the test on KM12 colon. The TGI with 786-0 renal is 26.2 µM; with MDA-MB-231 breast, over 100 µM; with SK-MEL-2 melanoma, 35.3 µM; in the test with MCF7 breast, over 100 µM; in the test on MALME-3M melanoma it was over 100 µM; with SNB-19 CNS, over 100 µM. Further, the TGI in the test with T-47D breast is over 100 µM; in the test on TK-10 renal, 19.1 µM; in the test with KM12 colon, 93.6 µM.

Turning to `O=c1[nH]c2ccccc2c2nc3ccccc3n12`, the TGI was over 100 µM in the test on 786-0 renal; over 100 µM in the test with MDA-MB-231 breast; over 100 µM in the test with MCF7 breast; 72.7 µM in the test with MALME-3M melanoma; over 100 µM with SNB-19 CNS; over 100 µM in the test on T-47D breast. The TGI in the test on TK-10 renal, in the test on KM12 colon and in the test on EKVX NSCLC was over 100 µM throughout.

Take `COC(=O)N1CC(=O)C(C(=O)NC23CC4CC(CC(C4)C2)C3)C1` (configuration not stated): the TGI with 786-0 renal, in the test on MDA-MB-231 breast, in the test on SK-MEL-2 melanoma, in the test with MCF7 breast, in the test on MALME-3M melanoma and in the test with SNB-19 CNS was over 100 µM each time. The TGI in the test on T-47D breast, in the test with TK-10 renal and with KM12 colon was over 100 µM in each case.

With `Cc1c(O)c(N=Nc2nc3ccccc3s2)c2ccccc2c1O`, the GI50 was over 50 µM in the test on 786-0 renal; 26.5 µM in the test with MDA-MB-231 breast; 17.3 µM in the test with SK-MEL-2 melanoma; over 50 µM in the test on MCF7 breast; 28.4 µM in the test with SNB-19 CNS; 39.2 µM with T-47D breast. For the same compound, the GI50 in the test on TK-10 renal is over 50 µM; with KM12 colon it was 23.2 µM; in the test on EKVX NSCLC, 13.3 µM. Further, the TGI with 786-0 renal is over 50 µM; with MDA-MB-231 breast, over 50 µM; with SK-MEL-2 melanoma, 43.2 µM; in the test with MCF7 breast, over 50 µM; with SNB-19 CNS, over 50 µM; in the test on T-47D breast it was over 50 µM. In addition, the TGI in the test on TK-10 renal, in the test on KM12 colon and in the test on EKVX NSCLC was over 50 µM throughout.
